# Results published in patent publication US11840686B2, “Modulation of prekallikrein (PKK) expression” (Ionis Pharmaceuticals, Inc., priority 2013, dated 2023).
# Strand notation (5' to 3'): a small letter for the sugar, then the base; units joined by * are phosphorothioate-linked, units joined directly phosphodiester-linked; [ ] holds rarer units or linkages, { } end groups; capitals alone tell only the bases. e = 2'-O-(2-methoxyethyl) (MOE); [5mC] = 5-methylcytosine; d = 2'-deoxy (DNA)
# Test system: human PKK mRNA
# Experiment: Antisense inhibition of human PKK mRNA in HepaRG cells, 5,000 nM (Example 2)
# Assay type: cell-based
# Conditions: HepaRG cells, electroporation, 5,000 nM antisense oligonucleotide, approx. 24 hours, primer probe set RTS3454, relative to untreated control cells; Table 12
# In short: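 HepaRG cells, 20,000 per well, were electroporated with 5,000 nM MOE gapmer (phosphorothioate, 5-methylcytosine) and incubated about 24 hours. PKK mRNA was quantified by qRT-PCR with primer probe set RTS3454, normalized to RIBOGREEN total RNA, and expressed as percent inhibition versus untreated controls.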
row,Substance,% inhibition
1,547540 (antisense eT*eT*eG*eT*eG*dT*dG*dG*d[5mC]*d[5mC]*d[5mC]*dT*d[5mC]*dT*dT*eA*eA*eG*eT*e[5mC]) [compound 547540],44%
2,547541 (antisense eT*eA*eT*eA*eG*dA*dT*dG*dT*dT*dT*dA*dT*dT*dG*eT*eA*eG*e[5mC]*e[5mC]) [compound 547541],36%
3,547542 (antisense eA*eT*eA*e[5mC]*eT*d[5mC]*dG*d[5mC]*d[5mC]*dT*dT*dT*dG*dT*dG*eA*e[5mC]*eT*e[5mC]*eG) [compound 547542],35%
4,547543 (antisense eT*eT*eT*eT*e[5mC]*d[5mC]*dA*dT*dG*d[5mC]*dA*dT*dA*d[5mC]*dT*e[5mC]*eG*e[5mC]*e[5mC]*eT) [compound 547543],54%
5,547544 (antisense eT*e[5mC]*eG*e[5mC]*e[5mC]*dT*dT*dT*dG*dT*dG*dA*dT*dG*d[5mC]*eG*eA*eT*eT*eT) [compound 547544],15%
6,547545 (antisense eA*eT*eA*e[5mC]*eT*d[5mC]*dG*d[5mC]*d[5mC]*dT*dT*dT*dG*dT*dG*eA*eT*eG*e[5mC]*eG) [compound 547545],43%
7,547546 (antisense e[5mC]*eA*eT*eA*e[5mC]*dT*d[5mC]*dG*d[5mC]*d[5mC]*dT*dT*dT*dG*dT*eG*eA*eT*eG*e[5mC]) [compound 547546],11%
8,547547 (antisense eG*e[5mC]*eA*eT*eA*d[5mC]*dT*d[5mC]*dG*d[5mC]*d[5mC]*dT*dT*dT*dG*eT*eG*eA*eT*eG) [compound 547547],42%
9,547548 (antisense eT*eG*e[5mC]*eA*eT*dA*d[5mC]*dT*d[5mC]*dG*d[5mC]*d[5mC]*dT*dT*dT*eG*eT*eG*eA*eT) [compound 547548],61%
10,547549 (antisense e[5mC]*e[5mC]*e[5mC]*eA*eT*dG*d[5mC]*dA*dT*dA*d[5mC]*dT*d[5mC]*dG*d[5mC]*e[5mC]*eT*eT*eT*eG) [compound 547549],36%
11,547550 (antisense e[5mC]*e[5mC]*e[5mC]*e[5mC]*eA*dT*dG*d[5mC]*dA*dT*dA*d[5mC]*dT*d[5mC]*dG*e[5mC]*e[5mC]*eT*eT*eT) [compound 547550],53%
12,547551 (antisense eT*e[5mC]*e[5mC]*e[5mC]*e[5mC]*dA*dT*dG*d[5mC]*dA*dT*dA*d[5mC]*dT*d[5mC]*eG*e[5mC]*e[5mC]*eT*eT) [compound 547551],38%
13,547552 (antisense e[5mC]*eT*e[5mC]*e[5mC]*e[5mC]*d[5mC]*dA*dT*dG*d[5mC]*dA*dT*dA*d[5mC]*dT*e[5mC]*eG*e[5mC]*e[5mC]*eT) [compound 547552],53%
14,547553 (antisense eT*eG*e[5mC]*eT*e[5mC]*d[5mC]*d[5mC]*d[5mC]*dA*dT*dG*d[5mC]*dA*dT*dA*e[5mC]*eT*e[5mC]*eG*e[5mC]) [compound 547553],64%
15,547554 (antisense eG*e[5mC]*eT*e[5mC]*eT*dG*dA*dT*dT*dG*dG*dG*dT*d[5mC]*dA*e[5mC]*e[5mC]*eA*e[5mC]*eA) [compound 547554],50%
16,547555 (eT*eG*eT*e[5mC]*eT*d[5mC]*d[5mC]*dT*dT*d[5mC]*d[5mC]*dA*d[5mC]*dT*dT*eG*e[5mC]*eT*e[5mC]*e[5mC]; antisense) [compound 547555],58%
17,547556 (eG*e[5mC]*e[5mC]*eA*eT*dT*dT*dT*dA*dT*d[5mC]*d[5mC]*d[5mC]*dT*dG*eA*eG*eA*eT*eT; antisense) [compound 547556],55%
18,547557 (e[5mC]*eT*eG*eT*eG*d[5mC]*dT*dG*dT*dA*dT*dT*dT*dT*dG*eG*eA*eG*e[5mC]*e[5mC]; antisense) [compound 547557],59%

# Same assay, conditions: Table 13; human PKK mRNA in HepaRG cells; 5-10-5 gapmers
row,Substance,% inhibition
1,547558 (e[5mC]*e[5mC]*e[5mC]*e[5mC]*e[5mC]*dA*dG*dT*dT*d[5mC]*d[5mC]*d[5mC]*dA*dT*dG*e[5mC]*eA*eA*eG*eG; antisense) [compound 547558],52%
2,547559 (eG*eA*eG*e[5mC]*eA*d[5mC]*dA*dG*dA*dT*d[5mC]*dT*d[5mC]*dT*dT*e[5mC]*eA*eA*eG*eT; antisense) [compound 547559],69%
3,547560 (eG*eA*e[5mC]*eG*eG*dT*d[5mC]*dA*d[5mC]*d[5mC]*d[5mC]*dA*dG*d[5mC]*d[5mC]*e[5mC]*eT*eG*eA*e[5mC]; antisense) [compound 547560],42%
4,547561 (eA*eA*eG*eG*eG*dA*dA*dA*dT*dT*dA*dG*dA*dG*dG*e[5mC]*eA*eG*eG*e[5mC]; antisense) [compound 547561],57%
5,547562 (e[5mC]*eT*eT*eT*e[5mC]*dT*dT*dG*dA*dG*dA*d[5mC]*dA*dA*dT*e[5mC]*e[5mC]*e[5mC]*eT*eT; antisense) [compound 547562],59%
6,547563 (eG*eT*eG*eG*eG*dA*dT*d[5mC]*dA*dG*dA*dG*dA*dA*dT*eG*eA*e[5mC]*eT*eA; antisense) [compound 547563],48%
7,547565 (e[5mC]*eT*eT*eA*eT*d[5mC]*dA*dG*dT*d[5mC]*d[5mC]*d[5mC]*dA*dG*dT*e[5mC]*eA*eT*eG*eT; antisense) [compound 547565],63%
8,547566 (eA*eA*eG*eA*eG*dT*dT*dG*dG*dG*dA*dT*dG*d[5mC]*dG*eA*e[5mC]*eT*e[5mC]*eT; antisense) [compound 547566],76%
9,547567 (eT*e[5mC]*e[5mC]*eA*e[5mC]*dT*d[5mC]*d[5mC]*dT*dA*dA*dG*dA*dA*dG*eT*eA*eT*eG*eG; antisense) [compound 547567],60%
10,547568 (eG*e[5mC]*eA*e[5mC]*e[5mC]*d[5mC]*dT*dT*dT*dT*d[5mC]*dA*dT*dT*dG*eA*eG*eA*eT*eT; antisense) [compound 547568],70%
11,547569 (eA*e[5mC]*eT*eA*e[5mC]*d[5mC]*dA*dT*dT*dT*dG*dG*dG*dT*dT*eG*eG*eT*eA*eG; antisense) [compound 547569],9%
12,547570 (eA*eA*eG*e[5mC]*e[5mC]*d[5mC]*dT*dG*dT*dT*dT*dG*dG*dT*dT*eT*eT*eT*eA*eG; antisense) [compound 547570],18%
13,547571 (eA*eA*eA*eT*eG*dA*d[5mC]*dA*d[5mC]*d[5mC]*dA*dA*dA*dA*dT*eT*eG*eA*eG*eT; antisense) [compound 547571],14%
14,547572 (eA*eA*eA*eT*eG*dA*d[5mC]*dA*d[5mC]*d[5mC]*dA*dA*dA*dA*dT*eT*e[5mC]*eG*e[5mC]*eT; antisense) [compound 547572],40%
15,547573 (eT*eA*eA*eG*e[5mC]*dA*dA*dG*dG*d[5mC]*d[5mC]*dT*dA*dT*dG*eT*eG*eT*eG*eG; antisense) [compound 547573],2%
16,547574 (eA*e[5mC]*eA*e[5mC]*eG*d[5mC]*dA*d[5mC]*dA*dG*dG*dT*d[5mC]*d[5mC]*d[5mC]*eA*eG*eG*eG*e[5mC]; antisense) [compound 547574],51%
17,547576 (e[5mC]*eT*eA*eG*eT*dT*dT*d[5mC]*d[5mC]*dT*dA*dT*dA*dA*d[5mC]*eT*eG*e[5mC]*eT*eG; antisense) [compound 547576],29%
18,547577 (e[5mC]*eT*eA*eA*e[5mC]*dA*dG*dT*dA*dT*d[5mC]*dA*d[5mC]*dT*dG*eT*eA*e[5mC]*eT*eA; antisense) [compound 547577],79%
19,547578 (eG*eT*e[5mC]*e[5mC]*eT*dA*dT*dA*dA*d[5mC]*dT*d[5mC]*dT*dA*dA*e[5mC]*eA*eG*eT*eA; antisense) [compound 547578],30%
20,547579 (eT*eG*eT*e[5mC]*e[5mC]*dT*dA*dT*dA*dA*d[5mC]*dT*d[5mC]*dT*dA*eA*e[5mC]*eA*eG*eT; antisense) [compound 547579],0%
21,547580 (eA*eT*e[5mC]*eA*e[5mC]*dT*dG*dT*d[5mC]*d[5mC]*dT*dA*dT*dA*dA*e[5mC]*eT*e[5mC]*eT*eA; antisense) [compound 547580],61%
22,547581 (eA*eT*eA*eT*e[5mC]*dA*d[5mC]*dT*dG*dT*d[5mC]*d[5mC]*dT*dA*dT*eA*eA*e[5mC]*eT*e[5mC]; antisense) [compound 547581],60%
23,547582 (eT*eA*eT*eA*eT*d[5mC]*dA*d[5mC]*dT*dG*dT*d[5mC]*d[5mC]*dT*dA*eT*eA*eA*e[5mC]*eT; antisense) [compound 547582],22%
24,547583 (e[5mC]*eA*e[5mC]*eT*eG*dT*d[5mC]*d[5mC]*dT*dA*dT*dA*dT*d[5mC]*dA*e[5mC]*eT*eG*eT*e[5mC]; antisense) [compound 547583],80%

# Same assay, conditions: human PKK mRNA in HepaRG cells; 5-10-5 gapmers; Table 14
row,Substance,% inhibition
1,547586 (eT*eA*eT*eA*eA*d[5mC]*dA*dG*dT*dA*dT*d[5mC]*dA*d[5mC]*dT*eG*eT*e[5mC]*e[5mC]*eT; antisense) [compound 547586],82%
2,547588 (eA*e[5mC]*eT*eA*eT*dA*dA*d[5mC]*dA*dG*dT*dA*dT*d[5mC]*dA*e[5mC]*eT*eG*eT*e[5mC]; antisense) [compound 547588],83%
3,547589 (eT*eA*eA*e[5mC]*eT*dA*dT*dA*dA*d[5mC]*dA*dG*dT*dA*dT*e[5mC]*eA*e[5mC]*eT*eG; antisense) [compound 547589],36%
4,547590 (eA*eT*eA*eA*e[5mC]*dT*dA*dT*dA*dA*d[5mC]*dA*dG*dT*dA*eT*e[5mC]*eA*e[5mC]*eT; antisense) [compound 547590],0%
5,547591 (e[5mC]*e[5mC]*eT*eA*eT*dA*dA*d[5mC]*dT*dA*dT*dA*dA*d[5mC]*dA*eG*eT*eA*eT*e[5mC]; antisense) [compound 547591],23%
